Measurements as given in ChEMBL document CHEMBL1201862, “PubChem BioAssay data set” (2004).
Calls of active or inactive are those of the source.

Key:
Estrogen receptor beta = Estrogen receptor beta (Homo sapiens, UniProt Q92731);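 note: recombinant ER-beta bound to coactivator SRC1 peptide in presence of estradiol agonist; inhibitors block coactivator peptide binding and lower the FRET signal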
[1] = target: T1, Voltage-gated N-type calcium channel alpha-1B subunit/Amyloid beta A4 precursor protein-binding family A member 1 (Homo sapiens, UniProt Q00975+Q02410); format: protein assay
T1 sequence (Q00975 whole entry): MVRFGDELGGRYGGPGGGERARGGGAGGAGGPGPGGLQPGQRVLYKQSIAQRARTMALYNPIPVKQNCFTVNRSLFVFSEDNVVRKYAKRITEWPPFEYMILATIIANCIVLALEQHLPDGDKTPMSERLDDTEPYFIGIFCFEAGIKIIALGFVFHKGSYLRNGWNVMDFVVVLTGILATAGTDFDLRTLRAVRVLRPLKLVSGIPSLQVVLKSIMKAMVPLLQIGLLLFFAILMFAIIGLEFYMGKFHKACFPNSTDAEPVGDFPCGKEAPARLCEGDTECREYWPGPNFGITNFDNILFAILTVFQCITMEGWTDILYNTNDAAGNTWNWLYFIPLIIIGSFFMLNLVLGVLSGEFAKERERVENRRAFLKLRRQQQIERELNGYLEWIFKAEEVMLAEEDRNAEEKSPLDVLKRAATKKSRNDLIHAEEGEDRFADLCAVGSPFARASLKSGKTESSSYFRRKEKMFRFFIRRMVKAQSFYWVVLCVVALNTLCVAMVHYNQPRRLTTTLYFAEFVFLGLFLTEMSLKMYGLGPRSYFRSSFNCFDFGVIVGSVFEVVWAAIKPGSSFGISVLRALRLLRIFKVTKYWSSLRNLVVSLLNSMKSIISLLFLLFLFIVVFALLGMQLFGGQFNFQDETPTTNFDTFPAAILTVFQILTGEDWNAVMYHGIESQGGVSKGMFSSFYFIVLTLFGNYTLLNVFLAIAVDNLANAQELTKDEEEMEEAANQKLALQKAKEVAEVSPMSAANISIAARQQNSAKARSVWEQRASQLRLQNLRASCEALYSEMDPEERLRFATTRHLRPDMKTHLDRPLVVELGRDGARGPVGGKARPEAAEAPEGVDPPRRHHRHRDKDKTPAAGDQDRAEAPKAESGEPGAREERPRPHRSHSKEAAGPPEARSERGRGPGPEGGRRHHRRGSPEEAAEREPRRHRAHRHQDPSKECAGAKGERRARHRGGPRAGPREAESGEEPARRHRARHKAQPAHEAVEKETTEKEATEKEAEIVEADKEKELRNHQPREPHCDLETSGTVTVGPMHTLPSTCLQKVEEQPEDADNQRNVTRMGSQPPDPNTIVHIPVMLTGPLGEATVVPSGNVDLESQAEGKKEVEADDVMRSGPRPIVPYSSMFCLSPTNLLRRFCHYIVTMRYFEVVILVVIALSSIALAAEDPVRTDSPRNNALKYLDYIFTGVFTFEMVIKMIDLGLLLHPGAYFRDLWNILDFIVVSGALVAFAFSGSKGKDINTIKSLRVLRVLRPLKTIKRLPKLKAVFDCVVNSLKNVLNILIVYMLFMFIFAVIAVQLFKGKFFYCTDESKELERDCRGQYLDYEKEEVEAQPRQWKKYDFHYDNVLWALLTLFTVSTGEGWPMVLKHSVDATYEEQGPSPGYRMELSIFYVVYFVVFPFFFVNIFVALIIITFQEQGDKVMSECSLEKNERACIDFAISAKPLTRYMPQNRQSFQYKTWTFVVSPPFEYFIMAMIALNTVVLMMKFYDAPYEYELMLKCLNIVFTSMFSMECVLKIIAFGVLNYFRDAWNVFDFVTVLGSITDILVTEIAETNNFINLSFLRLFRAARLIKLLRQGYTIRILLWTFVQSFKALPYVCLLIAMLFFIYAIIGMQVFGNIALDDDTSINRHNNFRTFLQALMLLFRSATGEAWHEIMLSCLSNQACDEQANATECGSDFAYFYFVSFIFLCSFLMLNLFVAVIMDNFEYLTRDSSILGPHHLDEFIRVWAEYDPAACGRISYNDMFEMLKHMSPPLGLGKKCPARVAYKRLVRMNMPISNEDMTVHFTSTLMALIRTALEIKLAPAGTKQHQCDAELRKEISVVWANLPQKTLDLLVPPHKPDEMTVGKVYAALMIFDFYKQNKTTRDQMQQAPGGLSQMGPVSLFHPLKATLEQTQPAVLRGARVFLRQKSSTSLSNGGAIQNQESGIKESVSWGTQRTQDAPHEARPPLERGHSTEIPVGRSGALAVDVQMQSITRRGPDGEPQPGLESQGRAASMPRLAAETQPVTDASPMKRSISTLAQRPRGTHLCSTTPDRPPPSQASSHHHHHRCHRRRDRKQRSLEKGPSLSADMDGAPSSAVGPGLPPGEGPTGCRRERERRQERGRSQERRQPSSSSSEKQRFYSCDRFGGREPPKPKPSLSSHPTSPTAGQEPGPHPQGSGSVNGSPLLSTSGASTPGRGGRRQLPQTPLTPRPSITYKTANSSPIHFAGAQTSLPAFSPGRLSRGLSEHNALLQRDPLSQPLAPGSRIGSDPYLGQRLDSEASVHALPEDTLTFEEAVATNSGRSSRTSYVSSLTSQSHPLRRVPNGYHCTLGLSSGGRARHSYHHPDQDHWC
T1 sequence (Q02410 whole entry): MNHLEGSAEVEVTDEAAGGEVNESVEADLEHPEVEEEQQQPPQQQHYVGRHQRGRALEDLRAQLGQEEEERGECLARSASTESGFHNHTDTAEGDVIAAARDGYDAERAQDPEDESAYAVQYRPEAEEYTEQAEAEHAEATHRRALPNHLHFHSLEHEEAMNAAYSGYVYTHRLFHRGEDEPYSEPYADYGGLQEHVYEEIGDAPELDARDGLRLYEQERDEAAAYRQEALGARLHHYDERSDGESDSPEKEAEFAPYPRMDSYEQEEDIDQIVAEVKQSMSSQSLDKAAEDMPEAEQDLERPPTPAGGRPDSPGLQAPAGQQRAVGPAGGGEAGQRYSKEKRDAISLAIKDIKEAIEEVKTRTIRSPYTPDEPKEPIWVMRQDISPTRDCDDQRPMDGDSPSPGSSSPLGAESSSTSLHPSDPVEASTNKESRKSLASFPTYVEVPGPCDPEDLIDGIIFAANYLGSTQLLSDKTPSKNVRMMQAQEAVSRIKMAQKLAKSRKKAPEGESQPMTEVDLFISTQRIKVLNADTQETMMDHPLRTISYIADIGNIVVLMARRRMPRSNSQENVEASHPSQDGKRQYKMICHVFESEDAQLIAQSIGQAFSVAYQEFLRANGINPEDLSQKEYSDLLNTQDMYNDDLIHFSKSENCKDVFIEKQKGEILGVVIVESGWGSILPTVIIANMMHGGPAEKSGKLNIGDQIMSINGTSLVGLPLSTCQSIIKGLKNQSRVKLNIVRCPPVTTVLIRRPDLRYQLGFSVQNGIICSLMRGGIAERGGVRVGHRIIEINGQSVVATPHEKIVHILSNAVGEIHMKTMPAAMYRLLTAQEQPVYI

[2] = target: T1, Voltage-gated N-type calcium channel alpha-1B subunit/Amyloid beta A4 precursor protein-binding family A member 1; format: protein assay; remark: listed apart in the source
[3] = Luminescence Cell-Based Dose Response to Identify Activators of 5'UTR Stem-Loop Driven Prion Protein mRNA Translation in H4-C Neuroglioblastoma Cells. [Related pubchem assays: 1829 (Project Summary), 1814 (Primary HTS)]; format: functional
H4 = assay: Luminescence Cell-Based Dose Response HTS to Identify Activators of 5'UTR Stem-Loop Driven Prion Protein mRNA Translation in H4 Neuroglioblastoma Cells. [Related pubchem assays: 1829 (Project Summary), 1814 (Primary HTS)]; format: functional; settings: Homo sapiens
[4] = target: T2, Calpain-2 catalytic subunit (Sus scrofa, UniProt P43367); assay: pig calpain II inhibitor potency, dose response, biochemical, fluorogenic peptide substrate (AID 1420); format: functional
T2 sequence (P43367 whole entry): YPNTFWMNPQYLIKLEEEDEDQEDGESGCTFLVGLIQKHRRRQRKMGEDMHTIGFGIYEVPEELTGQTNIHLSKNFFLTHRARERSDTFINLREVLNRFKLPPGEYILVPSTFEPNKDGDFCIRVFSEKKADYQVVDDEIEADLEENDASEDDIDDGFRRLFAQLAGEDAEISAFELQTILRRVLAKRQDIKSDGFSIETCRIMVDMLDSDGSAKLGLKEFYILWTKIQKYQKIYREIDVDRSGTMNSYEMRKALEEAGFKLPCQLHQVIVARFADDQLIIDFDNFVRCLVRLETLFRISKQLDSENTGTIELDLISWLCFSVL

[5] = Luminescence Cell-Based Dose Response HTS to Identify Activators of Luciferase Translation or Activity in H4 […] Cells. [Related pubchem assays: 1829 (Project Summary), 1814 (Primary HTS)]; format: functional
[6] = Luminescence Cell-Based Dose Response to Identify Activators of Luciferase Translation or Activity in H4-C Neuroglioblastoma Cells. [Related pubchem assays: 1829 (Project Summary), 1814 (Primary HTS)]; format: functional
[7] = Luminescence Cell-Based Dose Confirmation to Identify Activators of 5'UTR Stem-Loop Driven Alpha-Synuclein mRNA Translation in H4 Neuroglioblastoma Cells. [Related pubchem assays: 1829 (Project Summary), 1814 (Primary HTS)]; format: functional
INS1 = assay: beta cell apoptosis inhibitors, cytokine rescue, dose response, luminescence, retest (AID 449756); format: functional, cell-based; settings: Rattus norvegicus;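 note: cell death triggered by IL-1 beta plus TNF-alpha plus IFN-gamma mixture; protective hits raise ATP signal compared with cytokine alone wells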
[8] = Luminescence Cell-Based Dose Confirmation HTS to Identify Activators of 5'UTR Stem-Loop Driven Alpha-Synuclein mRNA Translation in H4 Neuroglioblastoma Cells. [Related pubchem assays: 1829 (Project Summary), 1814 (Primary HTS)]; format: functional
[9] = HepG2 cell cytotoxicity, dose response, cytotoxicity control, cherry-picked samples (AID 1159577); format: functional, cell-based
[10] = P. falciparum Dd2 growth inhibitors, dose response, SYBR Green, dry powder samples (AID 1159566); format: functional, cell-based;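 note: potency for growth inhibition with lower SYBR green DNA signal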
[11] = P. falciparum 3D7-ScDHODH growth inhibitors, dose response, SYBR Green, dry powder samples (AID 1159570); format: functional, cell-based;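 note: parasite growth measured after 72 hours of compound exposure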
[12] = HepG2 cell cytotoxicity, dose response, cytotoxicity control, plate reader, dry powder samples (AID 1159569); format: functional, cell-based;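 note: inhibitor potency with signal falling toward the positive control level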
[13] = P. falciparum Dd2 growth inhibitors, dose response, SYBR Green, cherry-picked samples (AID 1159567); format: functional, cell-based
[14] = P. falciparum ATP4 D1247Y mutant growth inhibitors, dose response, NITD609-resistant line, SYBR Green, dry powder (AID 1159571); format: functional, cell-based;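 note: parasites synchronized at ring stage by sorbitol before testing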
[15] = target: T3, Mannose-6-phosphate isomerase (Homo sapiens, UniProt P34949); assay: human PMI inhibitors, high substrate, primary screen, biochemical, fluorescence intensity, high mannose 6-phosphate (AID 1220)
T3 sequence (P34949 whole entry): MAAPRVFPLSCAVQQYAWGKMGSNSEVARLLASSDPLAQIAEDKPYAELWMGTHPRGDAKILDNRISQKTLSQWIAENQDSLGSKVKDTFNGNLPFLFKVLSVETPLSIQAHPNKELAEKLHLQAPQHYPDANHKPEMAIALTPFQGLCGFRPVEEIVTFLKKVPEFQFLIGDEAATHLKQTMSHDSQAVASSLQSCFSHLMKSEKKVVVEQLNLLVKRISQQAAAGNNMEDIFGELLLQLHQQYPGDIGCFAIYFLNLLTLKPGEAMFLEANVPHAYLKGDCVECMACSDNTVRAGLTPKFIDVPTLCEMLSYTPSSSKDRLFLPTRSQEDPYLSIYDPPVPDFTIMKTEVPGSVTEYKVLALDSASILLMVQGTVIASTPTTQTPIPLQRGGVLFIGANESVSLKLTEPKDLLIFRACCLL

[16] = target: T3, Mannose-6-phosphate isomerase; assay: inhibitors of human PMI, primary screen, biochemical, fluorescence intensity, coupled assay (AID 1209)
Nonstructural protein 1 = Nonstructural protein 1 (Influenza A virus, UniProt Q194T2); format: functional, Influenza A virus (A/California/07/2009(H1N1))
Nonstructural protein 1, sequence (Q194T2 whole entry): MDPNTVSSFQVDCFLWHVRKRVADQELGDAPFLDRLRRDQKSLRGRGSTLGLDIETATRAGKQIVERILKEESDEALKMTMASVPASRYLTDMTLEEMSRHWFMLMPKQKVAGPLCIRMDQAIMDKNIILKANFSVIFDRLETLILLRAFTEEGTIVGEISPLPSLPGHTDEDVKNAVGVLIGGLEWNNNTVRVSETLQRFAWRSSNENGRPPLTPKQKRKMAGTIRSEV

Beta-galactosidase = Beta-galactosidase (Escherichia coli, UniProt Q8VNN2); assay: beta-galactosidase enzyme inhibitors and activators, dose response, artefact control for CCR6 antagonist project, biochemical, E. coli enzyme, set 3 (AID 504712); format: functional
Beta-galactosidase, sequence (Q8VNN2 whole entry): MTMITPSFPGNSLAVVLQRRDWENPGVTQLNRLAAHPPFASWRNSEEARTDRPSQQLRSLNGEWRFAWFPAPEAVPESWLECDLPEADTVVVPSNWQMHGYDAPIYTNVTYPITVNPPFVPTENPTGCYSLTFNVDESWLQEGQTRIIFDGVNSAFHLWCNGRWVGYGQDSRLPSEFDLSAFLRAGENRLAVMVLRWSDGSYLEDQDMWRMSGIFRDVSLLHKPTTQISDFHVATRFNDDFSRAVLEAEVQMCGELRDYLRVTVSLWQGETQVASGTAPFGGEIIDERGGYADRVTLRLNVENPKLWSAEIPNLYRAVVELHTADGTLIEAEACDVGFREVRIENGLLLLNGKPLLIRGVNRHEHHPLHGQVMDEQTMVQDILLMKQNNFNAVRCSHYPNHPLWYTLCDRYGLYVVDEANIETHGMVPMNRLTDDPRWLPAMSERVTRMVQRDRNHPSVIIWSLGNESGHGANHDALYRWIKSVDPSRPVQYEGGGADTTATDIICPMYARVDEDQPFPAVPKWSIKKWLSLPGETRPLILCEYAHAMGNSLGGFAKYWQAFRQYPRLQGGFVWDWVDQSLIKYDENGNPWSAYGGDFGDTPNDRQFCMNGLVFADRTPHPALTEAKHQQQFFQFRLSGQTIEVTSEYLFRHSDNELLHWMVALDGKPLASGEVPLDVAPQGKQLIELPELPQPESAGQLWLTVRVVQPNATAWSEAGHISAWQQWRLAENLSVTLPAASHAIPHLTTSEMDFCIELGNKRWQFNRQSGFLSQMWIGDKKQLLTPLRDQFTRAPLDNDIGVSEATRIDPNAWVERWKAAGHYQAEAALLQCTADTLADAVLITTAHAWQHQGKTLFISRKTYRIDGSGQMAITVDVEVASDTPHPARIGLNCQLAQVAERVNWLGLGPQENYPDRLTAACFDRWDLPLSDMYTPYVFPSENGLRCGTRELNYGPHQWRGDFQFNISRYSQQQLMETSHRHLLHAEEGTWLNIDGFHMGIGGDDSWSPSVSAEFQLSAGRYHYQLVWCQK

[17] = LGR2 antagonists, dose response, cell-based, HEK293, CRE-luciferase reporter, cherry pick, set 2 (AID 743343); format: functional;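 note: transfected cells were stimulated with diluted bursicon conditioned medium after compound addition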
[18] = A549 cell cytotoxicity, dose response, cytotoxicity control, plate reader, cherry-pick, antagonist series (AID 743412); format: functional, cell-based
[19] = HepG2 cell cytotoxicity, dose response, cytotoxicity control, plate reader, cherry-pick, antagonist series (AID 743416); format: functional, cell-based
[20] = inhibitors of firefly luciferase expression or activity, dose response, H4 neuroglioma cells, luminescence (AID 1990); format: functional, cell-based
[21] = Luminescence Cell-Based Dose Response HTS to Identify Inhibitors of 5'UTR Stem-Loop Driven Prion Protein mRNA Translation in H4 Neuroglioblastoma Cells. [Related pubchem assays: 1827 (Project Summary), 1813 (Primary HTS)]; format: functional
[22] = Luminescence-based counterscreen assay for KLF5 inhibitors: dose response cell-based high throughput screening assay to identify cytotoxic compounds using the IEC-6 intestinal epithelial cell line. [Related pubchem assays: 1700 (Primary screen.), 1834 (Confirmation screen.), 1858 (Summary AID.), 1905 (Counterscreen.)]; format: functional
[23] = inhibitors of SNCA 5'UTR-driven reporter translation, confirmation, H4 neuroglioma cells, luminescence (AID 1988); format: functional, cell-based
[24] = MC4R antagonists, dose response, counter-screen for LGR2 antagonist project, cell-based, plate reader, cherry pick (AID 743444); format: functional;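 note: transfected HEK 293 cells stimulated with alpha-MSH peptide; potency of inhibitors of the alpha-MSH evoked signal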
[25] = luciferase reporter signal reduction – luminescence, H4-C neuroglioblastoma cells, dose response (AID 2458); format: functional, cell-based;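 note: H4 neuroglioblastoma cells stably carrying a luciferase reporter gene fusion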
[26] = inhibitors of SNCA 5'UTR-driven translation, confirmation, luminescence, H4 neuroglioblastoma cells, dose confirmation (AID 2454); format: functional, cell-based;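 note: H4 neuroglioblastoma cells carrying an alpha-synuclein 5'UTR luciferase reporter; potency for inhibition of the luciferase signal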
cells = format: functional, cell-based
HT-1080 = assay: cytotoxicity in HT1080 fibrosarcoma cells, cell-based, fluorescence readout (AID 620); format: functional; settings: Homo sapiens
[27] = target: Luciferin 4-monooxygenase (Photinus pyralis, UniProt P08659); assay: Counter Screen for Luciferase-based Assay Positives. [Related pubchem assays: 620, 618, 411 ]
[28] = Luminescence Cell-Based Dose Retest to Confirm Inhibitors of Cancer Stem Cells. [Related pubchem assays (depositor defined):AID2717, AID2721]; format: functional; settings: Homo sapiens

Estrogen receptor beta, sequence (Q92731 whole entry): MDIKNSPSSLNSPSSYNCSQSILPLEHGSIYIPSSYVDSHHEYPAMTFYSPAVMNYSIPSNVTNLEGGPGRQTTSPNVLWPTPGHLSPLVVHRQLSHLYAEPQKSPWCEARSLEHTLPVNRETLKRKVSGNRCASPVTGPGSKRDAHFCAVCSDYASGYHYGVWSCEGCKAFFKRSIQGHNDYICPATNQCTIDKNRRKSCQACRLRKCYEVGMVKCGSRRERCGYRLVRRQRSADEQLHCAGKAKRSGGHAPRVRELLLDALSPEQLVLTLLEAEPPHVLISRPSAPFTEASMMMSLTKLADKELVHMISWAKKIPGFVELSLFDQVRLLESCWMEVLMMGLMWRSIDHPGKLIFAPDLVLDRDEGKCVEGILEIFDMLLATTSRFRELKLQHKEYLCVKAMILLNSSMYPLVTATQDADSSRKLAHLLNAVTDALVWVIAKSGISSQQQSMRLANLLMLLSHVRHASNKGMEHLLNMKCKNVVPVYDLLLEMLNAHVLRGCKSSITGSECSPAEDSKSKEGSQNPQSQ

SMILES: O=C(O)CC(Cn1nnnc1S)c1ccccc1 (stereo not drawn)
- IC50 (Estrogen receptor beta): > 50000 nM (not active)

SMILES: COc1ccc2nc(O)c(CN(C3CCCCC3)C(c3nnnn3Cc3ccco3)C(C)C)cc2c1 (stereo not drawn)
- IC50 [1]: 25900 nM (active)
- IC50 [2]: 3170 nM (active)

SMILES: Cc1ccc(NC2=C/C(=N/S(=O)(=O)c3cccs3)c3ccccc3C2=O)cc1C
- EC50 [3]: 348 nM (active)
- EC50 (H4): < 100 nM (active)
- IC50 [4]: 22300 nM (not active)
- EC50 [5]: < 100 nM (active)
- EC50 [6]: 430 nM (active)
- EC50 [7]: 318 nM (active)
- AC50 (INS1): 1560 nM (active)
- EC50 [8]: 181 nM (active)

SMILES: c1ccc(CN2C[C@@H]3N[C@H](C2)[C@@H]3c2ccc(-c3ccncc3)cc2)cc1
- AC50 [9]: > 39000 nM (inactive)
- AC50 [10]: 1540 nM (active)
- AC50 [11]: 3960 nM (active)
- AC50 [12]: 18000 nM (active)
- AC50 [13]: 2350 nM (active)
- AC50 [14]: 1660 nM (active)

SMILES: Nc1c(-c2cccc(Cl)c2)cnc2c(-c3ccccc3)cnn12
- EC50 [3]: 478 nM (active)
- EC50 (H4): 785 nM (active)
- EC50 [5]: < 100 nM (inconclusive)
- EC50 [6]: 1150 nM (active)
- EC50 [7]: 321 nM (active)

SMILES: COc1cc(NC(C)=O)c2ncccc2c1[N+](=O)[O-]
- IC50 [15]: > 50000 nM (not active)
- IC50 [16]: > 50000 nM (not active)

SMILES: O=[N+]([O-])c1ccc(O)c(/C=N/Nc2nn[nH]n2)c1
- IC50 (Nonstructural protein 1): 1660 nM (active)
- IC50 (Beta-galactosidase): > 66600 nM (inactive)

SMILES: COC(=O)c1c(N)sc(C(=O)NCCc2ccccc2)c1C
- AC50 [17]: 1440 nM (active)
- AC50 [18]: > 52000 nM (inactive)
- AC50 [19]: > 52000 nM (inactive)
- EC50 [20]: 3070 nM (active)
- EC50 [21]: 394 nM (active)
- IC50 [22]: > 39800 nM (not active)
- EC50 [23]: 213 nM (active)
- AC50 [24]: 1940 nM (active)

SMILES: Cc1ccc2nc(NC(=O)CCCc3nc4ccccc4s3)sc2c1
- EC50 [25]: 1600 nM (active)
- EC50 [26]: 1540 nM (active)
- EC50 [20]: 499 nM (active)
- IC50 [22]: > 39800 nM (not active)
- EC50 (cells): > 12000 nM (not active)
- EC50 [23]: < 100 nM (active)

SMILES: CCCCCCOc1ccc(CN2CCN(CCO)CC2)cc1
- EC50 (HT-1080): > 50000 nM (not active)
- EC50 [27]: 1740 nM (active)
- AC50 [28]: < 160 nM (active)
